Test results as given in patent US20060154990A1, “Use of MEK inhibitors in treating abnormal cell growth” (AGOURON PHARMACEUTICALS, INC., priority 2004, published 2006).
Several values for one entry are separate records, joined by “and”; a condition that tells them apart may be missing. Equal entries are not always repeated. Marks after values point to notes of the source that are not given here.

How the values were obtained:
[1] = tested on: HT-29 colon xenograft; test: Antitumor activity in HT-29 tumor model; assay type: in vivo, mice; conditions: oral 25 mg/kg once a day for 14 days
[2] = Metabolites of [14C] Compound 1 in liver microsomes; assay type: in vitro ADME, monkey; conditions: [C-14] Compound 1 10 μM, 90 mins
Procedure: (§1) Incubations were performed in hepatocytes for 3 hours and liver microsomes for 1.5 hours and were stopped with the addition of methanol. HPLC, in conjuction with ionspray 3D iontrap mass spectrometry, and simultaneous radioactive monitoring were used to detect and identify the resulting metabolites.
(§2) This acid cleavage product is further metabolized to form hydroxylated (M 11, 16% in rat) and hydroxylated, defluorinated products (M 17, 19% in rat).

[3] = Metabolites of [14C] Compound 1 in cryopreserved hepatocytes; assay type: in vitro ADME, monkey; conditions: [C-14] Compound 1 10 μM, 180 mins
Procedure: as §1
Metabolite identification of radiolabeled Compound 1 was performed after incubation with rat, dog, monkey and human cryopreserved hepatocytes and liver microsomes. […] Besides glucuronidation, metabolites derived from other clearance pathways are also observed. For instance, M 15 (acid cleavage product) accounts for 11% of the total radioactivity in the human chromatogram.

[4] = Metabolites of [14C] Compound 1 in liver microsomes; assay type: in vitro ADME, human; conditions: [C-14] Compound 1 10 μM, 90 mins
Procedure: as §1, §2

[5] = tested on: panel of 27 kinases; test: Specificity against a panel of 27 kinases; conditions: 10 μM
[6] = tested on: RXF-393 renal cell carcinoma; test: Antitumor activity in RXF-393 tumor model; assay type: in vivo, mice; conditions: oral 25 mg/kg once a day, euthanized on day 8 of dosing
[7] = tested on: C26 mouse colon carcinoma; test: Antitumor activity against C26 mouse colon carcinoma
[8] = tested on: pERK in BxPC-3 tumors; test: Tumor pERK inhibition and PK-PD in BxPC-3 xenograft; assay type: in vivo, mice; conditions: BxPC-3 tumor, 25 mg/kg oral
[9] = Pilot food effect assessment of plasma pharmacokinetics; conditions: for AUC(0-24) Change % / Cmax Change %: fed versus fasted; for Cmax / Tmax / AUC(0-t): human, plasma, oral
[10] = C26, MTD 25 mg/kg/d oral 14 days
[11] = C26, oral BID D9-22, 1.56 mg/kg/dose
[12] = C26, oral BID D9-22, 3.125 mg/kg/dose
[13] = C26, oral BID D9-22, 6.25 mg/kg/dose
[14] = C26, oral BID D9-22, 12.5 mg/kg/dose
[15] = C26, oral BID D9-22, 12.5 mg/kg/dose (toxic)
[16] = C26, oral QD D9-22, 3.125 mg/kg/dose
[17] = C26, oral QD D9-22, 6.25 mg/kg/dose
[18] = C26, oral QD D9-22, 12.5 mg/kg/dose
[19] = C26, oral QD D9-22, 25 mg/kg/dose
[20] = C26 colon, oral 25 mg/kg once a day for 14 days
[21] = Colon26, 25 mg/kg PO QD Days 11-24 (MTD)
[22] = Colon26, 100 mg/kg IV QD Days 8-12, 15-19 (MTD)

In the case of O=C(NOC[C@H](O)CO)c1ccc(F)c(F)c1Nc1ccc(I)cc1F [Compound 1, N-[(R)-2,3-dihydroxy-propoxy]-3,4-difluoro-2-(2-fluoro-4-iodo-phenylamino)-benzamide], the “CR (complete responder)” value [1] was 0/10, the “PR (partial responder)” value [1] was 0/10 and the “Tumor Free” value [1] was 0/10. For the same molecule, the “% ROI Monkey” value [2] was 71.38%, the “% ROI Monkey” value [3] was 23.46% and the “% ROI Human” value [4] was 77.36%. For the same molecule, the “inhibition of panel of 27 kinases” value [5] was “completely refractory to inhibition”, the “CR (complete responder)” value [6] was 0/10 and the “PR (partial responder)” value [6] was 0/10. The “Tumor Free” value [6] was 0/10, the “animals showing complete response” value [7, 10] was 70% and the “animals showing either a complete or partial response” value [7, 10] was 100%. For the same molecule, the “animals showing partial response” value [7, 10] was 30%, the “CR (complete response)” value [7, 11] was 4 of 5 and 4/5 and the “Net Log10 kill” value [7, 11] was 0.0. The “Non-specific Deaths” value [7, 11] was 0/5, the “PR (partial response)” value [7, 11] was 1/5 and the “T − C” value [7, 11] was 13.1 days. The “Tumor Free” value [7, 11] was 0/5, the “CR (complete response)” value [7, 12] was 4/5 and the “Net Log10 kill” value [7, 12] was 0.3. For the same molecule, the “Non-specific Deaths” value [7, 12] was 0/5, the “PR (partial response)” value [7, 12] was 1/5 and the “T − C” value [7, 12] was 15.2 days. For the same molecule, the “Tumor Free” value [7, 12] was 0/5, the “CR (complete response)” value [7, 13] was 5/5 and the “Net Log10 kill” value [7, 13] was 0.3. For the same molecule, the “Non-specific Deaths” value [7, 13] was 0/5, the “PR (partial response)” value [7, 13] was 0/5 and the “T − C” value [7, 13] was 15.7 days. For the same molecule, the “Tumor Free” value [7, 13] was 0/5, the “Net Log10 kill” value [7, 14] was “Toxic” and the “Non-specific Deaths” value [7, 14] was 4/5^h. For the same molecule, the “T − C” value [7, 14] was “Toxic”, the “Tumor Free” value [7, 14] was “Toxic” and the “CR (complete response)” value [7, 15] was 5/5 Toxic. For the same molecule, the “PR (partial response)” value [7, 15] was 0/5 Toxic, the “CR (complete response)” value [7, 16] was 1 of 5 and 1/5 and the “Net Log10 kill” value [7, 16] was −0.1. The “Non-specific Deaths” value [7, 16] was 0/5, the “PR (partial response)” value [7, 16] was 4/5 and the “T − C” value [7, 16] was 12.1 days. For the same molecule, the “Tumor Free” value [7, 16] was 0/5, the “CR (complete response)” value [7, 17] was 3/5 and the “Net Log10 kill” value [7, 17] was 0.0. For the same molecule, the “Non-specific Deaths” value [7, 17] was 0/5, the “PR (partial response)” value [7, 17] was 2/5 and the “T − C” value [7, 17] was 12.9 days. For the same molecule, the “Tumor Free” value [7, 17] was 0/5, the “CR (complete response)” value [7, 18] was 5/5 and the “Net Log10 kill” value [7, 18] was 0.2. The “Non-specific Deaths” value [7, 18] was 0/5, the “PR (partial response)” value [7, 18] was 0/5 and the “T − C” value [7, 18] was 15.0 days. For the same molecule, the “Tumor Free” value [7, 18] was 0/5, the “CR (complete response)” value [7, 19] was 5/5 and the “Net Log10 kill” value [7, 19] was 0.3. The “Non-specific Deaths” value [7, 19] was 0/5, the “PR (partial response)” value [7, 19] was 0/5 and the “T − C” value [7, 19] was 15.3 days. For the same molecule, the “Tumor Free” value [7, 19] was 0/5, the “CR (complete responder)” value [7, 20] was 7/10 and the “PR (partial responder)” value [7, 20] was 3/10. The “T − C” value [7, 20] was 15.4 days, the “Tumor Free” value [7, 20] was 0/10 and the Tumor growth delay ([7]; C26 tumor, 25 mg/kg oral once a day for 14 days (MTD)) was 15.4 days. The “Total daily dose producing 70% complete tumor responses” value ([7]; C26 tumor, oral for 14 days) was 25 mg/kg, the CR [7, 21] was 10/10 and the Deaths [7, 21] was 0/10. For the same molecule, the “Net Log Kill” value [7, 21] was 0.2, the PR [7, 21] was 0/10 and the “T − C” value [7, 21] was 12.6 days. For the same molecule, the CR [7, 22] was 9/10, the Deaths [7, 22] was 1/10 and the “Net Log Kill” value [7, 22] was 0.6. For the same molecule, the PR [7, 22] was 1/10, the “T − C” value [7, 22] was 15.8 days and the “inhibition of pERK expression 24 hours after dosing” value [8] was 23%. The “AUC(0-24) Change %” value ([9]; 1 mg BID, individual patients) was −76% and 390%, the “Cmax Change %” value ([9]; 1 mg BID, individual patients) was −82% and 161% and the “AUC(0-24) Fasted” value ([9]; 1 mg BID, individual patients) was 998 ng·h/mL and 133 ng·h/mL. The “AUC(0-24) Fed” value ([9]; 1 mg BID, individual patients) was 244 ng·h/mL and 652 ng·h/mL, the “Cmax Fasted” value ([9]; 1 mg BID, individual patients) was 181 ng/mL and 21.6 ng/mL and the “Cmax Fed” value ([9]; 1 mg BID, individual patients) was 56.4 ng/mL. For the same molecule, the “AUC(0-24) Change %” value ([9]; 2 mg BID, individual patients) was −38% and 138% and 74% and 1%, the “Cmax Change %” value ([9]; 2 mg BID, individual patients) was −62% and −29% and −28% and −36% and the “AUC(0-24) Fasted” value ([9]; 2 mg BID, individual patients) was 874 ng·h/mL and 526 ng·h/mL and 454 ng·h/mL. For the same molecule, the “AUC(0-24) Fed” value ([9]; 2 mg BID, individual patients) was 369 ng·h/mL and 2080 ng·h/mL and 914 ng·h/mL and 456 ng·h/mL, the “Cmax Fasted” value ([9]; 2 mg BID, individual patients) was 77.5 ng/mL and 173 ng/mL and 71.9 ng/mL and 88.7 ng/mL and the “Cmax Fed” value ([9]; 2 mg BID, individual patients) was 29.5 ng/mL and 122 ng/mL and 52.1 ng/mL and 56.7 ng/mL. The “Tmax Fed” value ([9]; 2 mg BID, individual patients) was 8 h, the “AUC(0-24) Change %” value ([9]; 4 mg BID, individual patients) was −7% and −20% and −18% (2×) and the “Cmax Change %” value ([9]; 4 mg BID, individual patients) was −25% and −49% (2×) and −57%. For the same molecule, the “AUC(0-24) Fasted” value ([9]; 4 mg BID, individual patients) was 1060 ng·h/mL and 721 ng·h/mL and 919 ng·h/mL, the “AUC(0-24) Fed” value ([9]; 4 mg BID, individual patients) was 849 ng·h/mL and 590 ng·h/mL and 754 ng·h/mL and the “Cmax Fasted” value ([9]; 4 mg BID, individual patients) was 65.5 ng/mL and 157 ng/mL and 114 ng/mL. For the same molecule, the “Cmax Fed” value ([9]; 4 mg BID, individual patients) was 80.7 ng/mL and 58.4 ng/mL and 68.0 ng/mL, the “Tmax Fasted” value ([9]; 4 mg BID, individual patients) was 1 h and the “AUC(0-24) Change %” value ([9]; 15 mg BID, individual patients) was −14% and −67% and −27%. The “Cmax Change %” value ([9]; 15 mg BID, individual patients) was −59% and −80% and −50%, the “AUC(0-24) Fasted” value ([9]; 15 mg BID, individual patients) was 2880 ng·h/mL and 4880 ng·h/mL and the “AUC(0-24) Fed” value ([9]; 15 mg BID, individual patients) was 4700 ng·h/mL and 957 ng·h/mL and 3580 ng·h/mL. For the same molecule, the “Cmax Fasted” value ([9]; 15 mg BID, individual patients) was 1120 ng/mL and 464 ng/mL and 641 ng/mL, the “Cmax Fed” value ([9]; 15 mg BID, individual patients) was 459 ng/mL and 92.0 ng/mL and 319 ng/mL and the “AUC(0-24) Change %” value ([9]; 20 mg BID, individual patients) was −6% and −2% and −15%. The “Cmax Change %” value ([9]; 20 mg BID, individual patients) was −57% and −32% and −34%, the “AUC(0-24) Fasted” value ([9]; 20 mg BID, individual patients) was 4340 ng·h/mL and 6820 ng·h/mL and 3360 ng·h/mL and the “AUC(0-24) Fed” value ([9]; 20 mg BID, individual patients) was 4060 ng·h/mL and 6700 ng·h/mL and 2860 ng·h/mL. The “Cmax Fasted” value ([9]; 20 mg BID, individual patients) was 1180 ng/mL and 596 ng/mL, the “Cmax Fed” value ([9]; 20 mg BID, individual patients) was 358 ng/mL and 797 ng/mL and 393 ng/mL and the “coefficient of variation (CV) for AUC(0-24)” value ([9]; fed state) was 78%. The Cmax ([9]; 1 mg, Cmax Fed, 1 mg BID, individual patients) was 33.4 ng/mL, the Tmax ([9]; 1 mg, Tmax Fasted, 1 mg BID, individual patients) was 1 h and the Tmax ([9]; 1 mg, Tmax Fed, 1 mg BID, individual patients) was 3 h. For the same molecule, the AUC(0-t) ([9]; 2 mg, AUC(0-24) Fasted, 2 mg BID, individual patients) was 594 ng·h/mL, the Tmax ([9]; 2 mg, Tmax Fasted, 2 mg BID, individual patients) was 1 h and the Tmax ([9]; 2 mg, Tmax Fed, 2 mg BID, individual patients) was 6 h. It also gave an AUC(0-t) ([9]; 4 mg, AUC(0-24) Fasted, 4 mg BID, individual patients) of 705 ng·h/mL, an AUC(0-t) ([9]; 4 mg, AUC(0-24) Fed, 4 mg BID, individual patients) of 654 ng·h/mL and a Cmax ([9]; 4 mg, Cmax Fed, 4 mg BID, individual patients) of 49.1 ng/mL. The Tmax ([9]; 4 mg, Tmax Fed, 4 mg BID, individual patients) was 6 h, the AUC(0-t) ([9]; 15 mg, AUC(0-24) Fasted, 15 mg BID, individual patients) was 5460 ng·h/mL and the Tmax ([9]; 15 mg, Tmax Fasted, 15 mg BID, individual patients) was 1 h. For the same molecule, the Tmax ([9]; 15 mg, Tmax Fed, 15 mg BID, individual patients) was 4 h, the Cmax ([9]; 20 mg, Cmax Fasted, 20 mg BID, individual patients) was 839 ng/mL and the Tmax ([9]; 20 mg, Tmax Fasted, 20 mg BID, individual patients) was 1 h. The Tmax ([9]; 20 mg, Tmax Fed, 20 mg BID, individual patients) was 4 h and the “delay of peak plasma levels” value ([9]; taken with a high fat meal) was 2 to 7 h.
